Measured values reported in US10226452B2, “Benzoxazolone derivatives as acid ceramidase inhibitors, and their use as medicaments” (FONDAZIONE ISTITUTO ITALIANO DI TECNOLOGIA, priority 2014, dated 2019).

Legend:
COX2 (h) = COX2 (h) (Homo sapiens (Human), UniProt P35354); assay: Cerep enzyme inhibition screen: COX2; format: biochemical; settings: mean of two determinations, read-out: Inhibitory activity (% Inh. at 10 μM), mean
From the text: (§1) Compound of Example 25 falling in both Formula (I) and (Ia) was selected to be tested for off-target effects on a set of enzymes that include proteases (aspartic, cysteine, and serine), cyclooxygenases as well as lipoxygenases and group IV phospholipase (sPLA2) (Table 3). [table]

caspase-8 (h) = caspase-8 (h) (Homo sapiens (Human), UniProt Q14790); assay: Cerep enzyme inhibition screen: caspase-8; format: biochemical; settings: mean of two determinations, read-out: Inhibitory activity (% Inh. at 10 μM), mean
Chain of caspase-8 (h) (Q14790 217-374): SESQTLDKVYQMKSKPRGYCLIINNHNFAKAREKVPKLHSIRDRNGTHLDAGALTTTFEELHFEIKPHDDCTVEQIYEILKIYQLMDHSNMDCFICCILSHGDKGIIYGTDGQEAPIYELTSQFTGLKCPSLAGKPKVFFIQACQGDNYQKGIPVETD
Chain of caspase-8 (h) (Q14790 385-479): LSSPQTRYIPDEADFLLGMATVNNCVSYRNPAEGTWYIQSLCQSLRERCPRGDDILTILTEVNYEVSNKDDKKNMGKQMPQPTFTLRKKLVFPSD
From the text: as §1

cathepsin B (h) = cathepsin B (h) (Homo sapiens (Human), UniProt P07858); assay: Cerep enzyme inhibition screen: cathepsin B; format: biochemical; settings: mean of two determinations, read-out: Inhibitory activity (% Inh. at 10 μM), mean
From the text: as §1

AC = AC (Homo sapiens (Human), UniProt Q13510); assay: AC activity in SW403 human colon adenocarcinoma cells; format: cell-based
Chain of AC (Q13510 22-142): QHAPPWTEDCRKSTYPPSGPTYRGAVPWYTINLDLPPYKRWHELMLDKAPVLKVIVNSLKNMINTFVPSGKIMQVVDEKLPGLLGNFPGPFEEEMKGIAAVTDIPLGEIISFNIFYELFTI
Chain of AC (Q13510 143-395): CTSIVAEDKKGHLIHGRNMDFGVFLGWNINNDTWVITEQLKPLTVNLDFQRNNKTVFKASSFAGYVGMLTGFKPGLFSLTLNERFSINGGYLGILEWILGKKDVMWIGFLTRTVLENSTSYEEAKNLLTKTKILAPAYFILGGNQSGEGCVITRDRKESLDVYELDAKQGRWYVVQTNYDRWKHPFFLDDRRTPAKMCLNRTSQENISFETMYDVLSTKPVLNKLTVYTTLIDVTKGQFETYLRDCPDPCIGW
Experimental: (§2) (A) Intact cells were treated with compound of Example 25 (0.1-20 μM) or vehicle and AC activity was measured 3 hours later in cell lysates. (B-E) Intact cells were exposed to compound of Example 25 (0.1-20 μM) for 3 hours and sphingosine/sphinganine (B), dihydroceramides (C), medium chain ceramides (D), long chain ceramides (E) were quantified. Results are expressed as mean±s.e.m. (n=3). *p<0.05, **p<0.01, ***p<0.001 vs vehicle, two-way ANOVA followed by Dunnet.
(§3) (A) Intact cells were treated with compound of Example 25 (20 μM) or vehicle and AC activity was measured 1 to 48 hours later in cell lysates. (B-E) Intact cells were exposed to compound of Example 25 (20 μM) and sphingosine (B), C16:0 dihydroceramide (C), C16:0 ceramide (D) were quantified. Results are expressed as mean±s.e.m. (n=3). *p<0.05, **p<0.01, ***p<0.001 vs vehicle, two-way ANOVA followed by Dunnet.
hAC protein preparation (10 μg) was preincubated with inhibitors (final DMSO concentration 1%) in assay buffer (100 mM sodium phosphate, 0.1% Nonidet P-40, 150 mM NaCl, 3 mM DTT, 100 mM sodium citrate, pH 4.5) for 30 min at 37° C. Reactions were started by the addition of 50 μM N-lauroyl ceramide (Nu-Chek Prep, Elysian, Minn.) and carried on for 30 min at 37° C. Reactions were stopped by addition of a mixture of chloroform/methanol (2:1, vol/vol) containing 1 nmol 11-lauroleic acid (NuChek Prep). The organic phases were collected, dried under nitrogen and analyzed by UPLC/MS (Acquity, Waters). In the negative-ion mode monitoring the reaction product (lauric acid, m/z=199) using 11-lauroleic acid as internal standard. […]
The [M−H]^− ion was monitored in the selected-ion monitoring mode (m/z values: lauric acid 199, 11-lauroleic acid 197.35). […] Inhibition of AC activity was calculated as reduction of lauric acid in the samples compared to vehicle controls. IC50 values were calculated by non-linear regression analysis of log [concentration]/inhibition curves using GraphPad Prism 5 (GraphPad Software Inc., CA—USA) applying a standard slope curve fitting.

SW403 cells = assay: sphingosine and ceramide levels in SW403 cells; format: cell-based, human; settings: 0.1-20 μM, 3 hours
Experimental: as §2
as §3, with “(n=3). *p<0.05, **p<0.01, ***p<0.001 vs vehicle, two-way ANOVA followed by Dunnet.” left out
Lipids were extracted from mouse tissue lysate with a chloroform/MeOH mixture (2:1 v/v, 3 mL) containing internal standards. […] Ceramides, sphingosine and sphinganine were analyzed by LC-MS/MS, using a Waters Acquity UPLC coupled with a Waters Xevo TQMS and interfaced with ESI. […]
Tissue-derived sphingosine and sphinganine were identified by comparison of their LC retention times and MS^2 fragmentation patterns with those of authentic standards (Avanti Polar Lipids). Extracted ion chromatograms were used to quantify sphingosine ([…], m/z 300.5>282.5) and sphinganine standard (C18:0, m/z 303>285). […]

[1] = 20 μM, AC activity and sphingolipid levels

Chain of COX2 (h) (P35354 18-604): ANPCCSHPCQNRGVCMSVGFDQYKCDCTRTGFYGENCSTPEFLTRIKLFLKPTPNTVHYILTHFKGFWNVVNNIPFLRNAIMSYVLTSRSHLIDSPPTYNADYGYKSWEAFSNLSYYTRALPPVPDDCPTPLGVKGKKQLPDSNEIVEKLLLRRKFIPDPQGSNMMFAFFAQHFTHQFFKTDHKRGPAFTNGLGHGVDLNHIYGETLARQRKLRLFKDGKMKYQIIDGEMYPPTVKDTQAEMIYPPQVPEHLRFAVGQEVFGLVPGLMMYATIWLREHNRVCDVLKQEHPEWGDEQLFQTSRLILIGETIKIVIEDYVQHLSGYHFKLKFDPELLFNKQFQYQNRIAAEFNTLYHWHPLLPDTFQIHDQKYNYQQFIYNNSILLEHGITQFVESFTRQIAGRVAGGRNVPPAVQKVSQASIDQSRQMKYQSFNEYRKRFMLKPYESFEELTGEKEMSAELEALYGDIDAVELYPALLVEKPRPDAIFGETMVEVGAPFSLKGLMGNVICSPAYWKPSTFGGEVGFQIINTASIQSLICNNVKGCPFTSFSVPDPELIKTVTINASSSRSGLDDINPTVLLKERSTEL

O=C(NCCCCc1ccccc1)n1c(=O)oc2cc(-c3ccc(F)cc3)ccc21 [Example 25, 6-(4-Fluorophenyl)-2-oxo-N-(4-phenylbutyl)-1,3-benzoxazole-3-carboxamide]
inhibition at 10 µM (COX2 (h)): 6.7%
inhibition at 10 µM (caspase-8 (h)): -0.9%
inhibition at 10 µM (cathepsin B (h)): 9.9%
duration of effects (timecourse) (AC; [1]): ≥ 6 h
onset of significant effects (timecourse) (AC; [1]): ≤ 1 h
AC activity (AC; 0.1-20 μM, 3 hours): concentration dependent reduction in AC activity
di-hydro ceramides and ceramide species levels (SW403 cells): intracellular accumulation of various di-hydro ceramides and ceramide species
sphingosine levels (SW403 cells): parallel decrease in sphingosine levels
